In publication PMC4117522, “Proteasome Inhibitors Alter Levels of Intracellular Peptides in HEK293T and SH-SY5Y Cells” (PLoS ONE, 2014):

Tested on: HEK293T cell aminopeptidase activity (Ala-AMC cleavage)
Test: Aminopeptidase assay with Ala-AMC in HEK293T cell extracts
Type: biochemical, human
Settings: HEK293T cell extract, 10 µM inhibitor
Protocol: All enzyme assays described below were performed in the linear range of the assay, as determined from time-course studies. HEK293T cells were lysed by sonication in 50 mM TrisHCl buffer, pH 7.5, containing 40 mM KCl, 5 mM MgCl2, 0.5 mM ATP, and 1 mM DTT (Buffer 1).
To measure TPP2, the fluorescent substrate was Ala-Ala-Phe-AMC. Aminopeptidase (AP) assays were performed with Leu-AMC and Ala-AMC, which detect leucine aminopeptidase (LAP), puromycin-sensitive aminopeptidase (PSAP), and other enzymes. To measure the effect of aminopeptidase/proteasome inhibitors on cleavage of Ala-Ala-Phe-AMC and Leu-AMC, 1∶50 dilution of the cell extract was pre-incubated with the inhibitor and Buffer 1 for 30 min, followed by addition of 100 µM final concentration of the respective substrate. For Ala-AMC, the same dilution of the cell extract was pre-incubated with the inhibitor and 50 mM MOPS buffer, pH 7.5, containing 40 mM KCl, 5 mM MgCl2, 0.5 mM ATP, and 1 mM DTT (Buffer 2), followed by addition of 100 µM final concentration of the substrate. After incubation at 37°C for 1 hour, enzyme activity was quantified by fluorescence measurement of the substrate (380 nm excitation, 460 nm emission).
Figure 7 Effect of aminopeptidase inhibitors on Ala-AMC and Leu-AMC cleavage. HEK 293T cell extract (panels A–D) or recombinant PSAP (panels E–F) were treated with increasing concentrations of bestatin or puromycin for 30 minutes followed by the addition of substrate and incubation for 1 hour. Enzyme activity was determined by fluorescence measurement of AMC and expressed as percentage enzyme activity relative to the control without inhibitor. (A) Bestatin inhibition of HEK293T cell extract assayed with Ala-AMC. (B) Bestatin inhibition of HEK293T cell extract assayed with Leu-AMC. (C) Puromycin inhibition of HEK293T cell extract assayed with Ala-AMC. (D) Puromycin inhibition of HEK293T cell extract assayed with Leu-AMC. (E) Puromycin inhibition of purified PSAP assayed with Ala-AMC. (F) Puromycin inhibition of purified PSAP assayed with Leu-AMC. Error bars show standard error of mean (n = 4), points without error bars had error ranges smaller than the symbol size. Statistical analysis was performed using Student’s t-test: *, p≤0.05; **, p≤0.01; ***, p≤0.001; ns, no significant difference (p>0.05) versus the control.
Figure 8 Effect of proteasome inhibitors on Ala-AMC and Leu-AMC cleavage. HEK 293T cell extract or recombinant PSAP was treated with 10 µM of each of the proteasome inhibitors for 1 hour in addition to a 30 min pre-incubation without the substrate. Enzyme activity was determined by fluorescence measurement of AMC and expressed as percentage enzyme activity relative to the control without inhibitor. Panels A and B represent the effect of proteasome inhibitors on cleavage of Ala-AMC and Leu-AMC respectively, in HEK293T cell extract. […] Error bars show standard error of mean (n = 4). Statistical analysis was performed using Student’s t-test: *, p≤0.05; **, p≤0.01; ***, p≤0.001; ns, no significant difference (p>0.05) versus the control.

CN1C/C(=C/c2ccc(B(O)O)cc2)C(=O)/C(=C\c2ccc(B(O)O)cc2)C1 [AM114, reference compound]
effect on cleavage of Ala-AMC: without effect
